By EC50 is commonly meant the concentration giving half of the maximal effect.

Some results are limits rather than exact numbers.

This is an account of results in US9447044B2, “Thioaryl derivatives as GPR120 agonists” (LG LIFE SCIENCES LTD., priority 2012, dated 2016).

The first assay has as its target T1, hGPR120 (Homo sapiens, UniProt Q5NUL3).
T1 construct: expressed in transfected cells; host or cells: CHO-K1
T1 sequence (Q5NUL3 1-361): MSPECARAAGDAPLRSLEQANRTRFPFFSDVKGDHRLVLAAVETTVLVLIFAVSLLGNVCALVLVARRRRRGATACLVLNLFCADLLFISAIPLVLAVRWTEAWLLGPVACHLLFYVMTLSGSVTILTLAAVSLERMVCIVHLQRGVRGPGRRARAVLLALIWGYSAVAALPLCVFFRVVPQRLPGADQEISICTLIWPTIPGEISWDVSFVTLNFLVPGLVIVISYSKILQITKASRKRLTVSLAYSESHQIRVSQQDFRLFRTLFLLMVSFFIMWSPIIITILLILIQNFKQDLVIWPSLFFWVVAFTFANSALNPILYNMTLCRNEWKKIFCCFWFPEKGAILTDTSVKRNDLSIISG
Nature of the assay: Measurement of activity of GPR120 agonist (cell-based assay), calcium fluorescence. Conditions: CHO-K1 cells expressing Ga16 and hGPR120; Calcium 5 dye fluorescence; activity class. In short, it runs like this:
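CHO-K1 cells co-expressing Gα16 and hGPR120, loaded with Calcium 5 dye for 1 h at 37° C, received serially diluted agonists (final 0.5% DMSO). Fluorescence (Ex 485/Em 525 nm) was expressed as relative percent over 0.1% DMSO-only wells; activity binned as A >20 μM, B 20–2 μM, C 2–0.2 μM, D <0.2 μM.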
With `CC(C)Sc1ncccc1COc1c(F)cc(CC2CC2C(=O)O)cc1F` (stereo not shown) [Example 116, 2-[3,5-difluoro-4-(2-isopropylsulfanyl-pyridin-3-ylmethoxy)-benzyl]-cyclopropane carboxylic acid], the EC50 was 200 to 2000 nM. Still for that read-out and setting: the figure for `O=C(O)CC1CC1c1ccc(OCc2cccc(SC3CCCC3)n2)c(F)c1` (stereo not shown) [Example 120, {2-[4-(6-cyclopentylsulfanyl-pyridin-2-ylmethoxy)-3-fluoro-phenyl]-cyclopropyl}-acetic acid] is 200 to 2000 nM; for `CCCSc1ncccc1COc1ccc(C2CC2CC(=O)O)cc1F` (stereo not shown) [Example 121, {2-[3-fluoro-4-(2-propylsulfanyl-pyridin-3-ylmethoxy)-phenyl]-cyclopropyl}-acetic acid] it is under 200 nM. The same measure, in the same setting: the figure for `O=C(O)Cc1coc2c(F)c(OCc3cccnc3SC3CCCC3)c(F)cc12` [Example 122, [6-(2-cyclopentylsulfanyl-pyridin-3-ylmethoxy)-5,7-difluoro-benzofuran-3-yl]-acetic acid] is under 200 nM; for `O=C(O)CC1COc2c1cc(F)c(OCc1cccnc1SC1CCCC1)c2F` (stereo not shown) [Example 123, [6-(2-cyclopentylsulfanyl-pyridin-3-ylmethoxy)-5,7-difluoro-2,3-dihydro-benzofuran-3-yl]-acetic acid] it is under 200 nM; for `O=C(O)C1CC1c1ccc(OCc2cccnc2SCC2CC2)c(Cl)c1` (stereo not shown) [Example 127, 2-[3-chloro-4-(2-cyclopropylmethylsulfanyl-pyridin-3-ylmethoxy)-phenyl]-cyclopropane carboxylic acid] it is under 200 nM. The same measure, in the same setting: for `O=C(O)C1CC1c1ccc(OCc2cccc(SC3CCC3)n2)c(Cl)c1` (stereo not shown) [Example 132, 2-[3-chloro-4-(6-cyclobutylsulfanyl-pyridin-2-ylmethoxy)-phenyl]-cyclopropane carboxylic acid] the value was under 200 nM. As for `CCCSc1ncccc1COc1c(F)cc(C2CC2C(=O)O)cc1F` (stereo not shown) [Example 139, 2-[3,5-difluoro-4-(2-propylsulfanyl-pyridin-3-ylmethoxy)-phenyl]-cyclopropane carboxylic acid], the EC50 is under 200 nM.

With `CC(C)Sc1cccc(COc2ccc(CCC(=O)O)cc2Cl)n1` [Example 141, 3-[3-chloro-4-(6-isopropylsulfanyl-pyridin-2-ylmethoxy)-phenyl]-propionic acid], the EC50 was under 200 nM. The same measure, in the same setting: for `O=C(O)CCc1ccc(OCc2cccc(SC3CCCC3)n2)c(Cl)c1` [Example 143, 3-[3-chloro-4-(6-cyclopentylsulfanyl-pyridin-2-ylmethoxy)-phenyl]-propionic acid] the value was under 200 nM; for `CCCSc1ncccc1COc1ccc(CCC(=O)O)cc1F` [Example 144, 3-[3-fluoro-4-(2-propylsulfanyl-pyridin-3-ylmethoxy)-phenyl]-propionic acid], under 200 nM. For the compound `O=C(O)CCc1ccc(OCc2cccnc2SC2CCC2)c(F)c1` [Example 145, 3-[4-(2-cyclobutylsulfanyl-pyridin-3-ylmethoxy)-3-fluoro-phenyl]-propionic acid], the EC50 was under 200 nM. Regarding `O=C(O)CCc1ccc(OCc2cccnc2SC2CCCC2)c(F)c1` [Example 146, 3-[4-(2-cyclopentylsulfanyl-pyridin-3-ylmethoxy)-3-fluoro-phenyl]-propionic acid], the EC50 was under 200 nM. The same measure, in the same setting: for `O=C(O)CCc1ccc(OCc2cccc(SC3CCC3)n2)c(F)c1` [Example 148, 3-[4-(6-cyclobutylsulfanyl-pyridin-2-ylmethoxy)-3-fluoro-phenyl]-propionic acid] the value was under 200 nM. For `CC(C)Sc1cccc(COc2ccc(CCC(=O)O)cc2F)n1` [Example 149, 3-[3-fluoro-4-(6-isopropylsulfanyl-pyridin-2-ylmethoxy)-phenyl]-propionic acid], the EC50 was under 200 nM.

`O=C(O)CCc1ccc(OCc2cccc(SC3CCCC3)n2)c(F)c1` [Example 150, 3-[4-(6-cyclopentylsulfanyl-pyridin-2-ylmethoxy)-3-fluoro-phenyl]-propionic acid]: the concentration for a half-maximal effect (EC50) was under 200 nM. Same read-out and setting: for `O=C(O)CCc1ccc(OCc2cccc(SCC3CC3)n2)c(F)c1` [Example 151, 3-[4-(6-cyclopropylmethylsulfanyl-pyridin-2-ylmethoxy)-3-fluoro-phenyl]-propionic acid] the value was under 200 nM; for `CC(C)Sc1cccc(COc2c(F)cc(C3CC3C(=O)O)cc2F)n1` (stereo not shown) [Example 152, 2-[3,5-difluoro-4-(6-isopropylsulfanyl-pyridin-2-ylmethoxy)-phenyl]-cyclopropane carboxylic acid], under 200 nM; for `O=C(O)C1CC1c1cc(F)c(OCc2cccc(SCC3CC3)n2)c(F)c1` (stereo not shown) [Example 153, 2-[4-(6-cyclopropylmethylsulfanyl-pyridin-2-ylmethoxy)-3,5-difluoro-phenyl]-cyclopropane carboxylic acid], under 200 nM. Regarding `O=C(O)C1CC1c1cc(F)c(OCc2cccc(SC3CCC3)n2)c(F)c1` (stereo not shown) [Example 155, 2-[4-(6-cyclobutylsulfanyl-pyridin-2-ylmethoxy)-3,5-difluoro-phenyl]-cyclopropane carboxylic acid], the EC50 was under 200 nM. On to `O=C(O)CCc1ccc(OCc2cccnc2SCC2CC2)c(Cl)c1` [Example 157, 3-[3-chloro-4-(2-cyclopropylmethylsulfanyl-pyridin-3-ylmethoxy)-phenyl]-propionic acid], for which the EC50 is under 200 nM. On the same count and under the same terms, the figure for `O=C(O)CCc1ccc(OCc2cccnc2SC2CCC2)c(Cl)c1` [Example 158, 3-[3-chloro-4-(2-cyclobutylsulfanyl-pyridin-3-ylmethoxy)-phenyl]-propionic acid] is under 200 nM. Consider `O=C(O)CCc1ccc(OCc2cccc(SC3CCC3)n2)c(Cl)c1` [Example 159, 3-[3-chloro-4-(6-cyclobutylsulfanyl-pyridin-2-ylmethoxy)-phenyl]-propionic acid], for which the EC50 was under 200 nM. The same measure, in the same setting: the figure for `Cc1ccc(COc2ccc(CCC(=O)O)cc2Cl)c(SC2CCCC2)n1` [Example 161, 3-[3-chloro-4-(2-cyclopentylsulfanyl-6-methyl-pyridin-3-ylmethoxy)-phenyl]-propionic acid] is 200 to 2000 nM; for `CC(C)Sc1ncccc1COc1ccc(C2CC2C(=O)O)cc1F` (stereo not shown) [Example 162, 2-[3-fluoro-4-(2-isopropylsulfanyl-pyridin-3-ylmethoxy)-phenyl]-cyclopropane carboxylic acid] it is under 200 nM; for `O=C(O)C1CC1c1ccc(OCc2cccc(SCC3CC3)n2)c(F)c1` (stereo not shown) [Example 170, 2-[4-(6-cyclopropylmethylsulfanyl-pyridin-2-ylmethoxy)-3-fluoro-phenyl]-cyclopropane carboxylic acid] it is under 200 nM. For the compound `O=C(O)CCc1ccc(NCc2cccnc2SC2CCCC2)cc1` [Example 171, 3-{4-[(2-cyclopentylsulfanyl-pyridin-3-ylmethyl)-amino]-phenyl]-propionic acid], the EC50 was 200 to 2000 nM.

In the case of `O=C(O)CCc1ccc(NCc2cccc(SC3CCCC3)n2)cc1` [Example 172, 3-{4-[(6-cyclopentylsulfanyl-pyridin-2-ylmethyl)-amino]-phenyl]-propionic acid], the EC50 is 2000 to 20000 nM. Take `O=C(O)CCc1ccc(OCc2cccnc2SC2CCCC2)cc1F` [Example 173]: the EC50 is under 200 nM.

The assay is the same for the next values; noted with them: CHO-K1 cells expressing Ga16 and hGPR120; Calcium 5 dye fluorescence; numeric value.
`CCCSc1ncccc1COc1c(F)cc(CC2CC2C(=O)O)cc1F` (stereo not shown) [Example 117, 2-[3,5-difluoro-4-(2-propylsulfanyl-pyridin-3-ylmethoxy)-benzyl]-cyclopropane carboxylic acid]: the EC50 came out at 108 nM. Still for that read-out and setting: the figure for `Cc1c(OCc2cccnc2SC2CCCC2)ccc2c(CC(=O)O)coc12` [Example 118, [6-(2-cyclopentylsulfanyl-pyridin-3-ylmethoxy)-7-methyl-benzofuran-3-yl]-acetic acid] is 135 nM; for `CC(C)Sc1ncccc1COc1ccc(C2CC2C(=O)O)cc1Cl` (stereo not shown) [Example 126, 2-[3-chloro-4-(2-isopropylsulfanyl-pyridin-3-ylmethoxy)-phenyl]-cyclopropane carboxylic acid] it is 91 nM. Still for that read-out and setting: the figure for `O=C(O)C1CC1c1ccc(OCc2cccc(SCC3CC3)n2)c(Cl)c1` (stereo not shown) [Example 128, 2-[3-chloro-4-(6-cyclopropylmethylsulfanyl-pyridin-2-ylmethoxy)-phenyl]-cyclopropane carboxylic acid] is 42 nM; for `CC(C)Sc1ncccc1COc1c(F)cc(C2CC2C(=O)O)cc1F` (stereo not shown) [Example 138, 2-[3,5-difluoro-4-(2-isopropylsulfanyl-pyridin-3-ylmethoxy)-phenyl]-cyclopropane carboxylic acid] it is 56 nM; for `O=C(O)CCc1ccc(OCc2cccc(SCC3CC3)n2)c(Cl)c1` [Example 142, 3-[3-chloro-4-(6-cyclopropylmethylsulfanyl-pyridin-2-ylmethoxy)-phenyl]-propionic acid] it is 11 nM. Same read-out and setting: for `O=C(O)CCc1ccc(OCc2cccnc2SCC2CC2)c(F)c1` [Example 147, 3-[4-(2-cyclopropylmethylsulfanyl-pyridin-3-ylmethoxy)-3-fluoro-phenyl]-propionic acid] the value was 54 nM; for `Cc1ccc(COc2ccc(CCC(=O)O)cc2Cl)c(SC(C)C)n1` [Example 160, 3-[3-chloro-4-(2-isopropylsulfanyl-6-methyl-pyridin-3-ylmethoxy)-phenyl]-propionic acid], 202 nM.
